Holding throughout (assay): biochemical
The target of one assay is H-2Kk (Mus musculus, UniProt P04223). Format: binding, murine.
The next assay concerns the target HLA-B*0702 (Homo sapiens, UniProt P01889). Format: binding.
The next assay has as its target HLA-B*3501 (Homo sapiens, UniProt P01889, A329T/A93T/A95T/C349S/D201E/D98Y/E176V/E187L/E204Q/E69T/I218V/K202T/L119I/Q94N/R155S/R180L/S121R/S35A/S48A/T118I/V127L/V306I/V36M/Y140S/Y91F). The following applies: B*3501 binding affinity (IC50).
The target in the next assay is HLA-B*5101 (Homo sapiens, UniProt P01889, A329T/A93T/A95T/C349S/D138N/D201E/D98Y/E187L/E204Q/E69T/G107R/I218V/K202T/L105A/L119W/N104I/Q94N/R106L/R155S/R180L/S101N/S121T/S35A/S48A/V306I/V36M/Y195H/Y91F). To be noted: B*5101 binding affinity (IC50).
In a further assay the target is HLA-B*5301 (Homo sapiens, UniProt P01889, A329T/A93T/A95T/C349S/D201E/D98Y/E176V/E187L/E204Q/E69T/G107R/I218V/K202T/L105A/L119I/N104I/Q94N/R106L/R155S/R180L/S101N/S121R/S35A/S48A/T118I/V127L/V306I/V36M/Y140S/Y91F). Format: binding.
Another assay addresses HLA-B*5401 (Homo sapiens, UniProt P01889, A329T/C349S/D138N/D201E/E176V/E187T/E204Q/E69G/I76V/K202T/L119W/R155S/R180L/S121T/S35A/S48A/V127L/V306I/V36M/Y140L). Format: binding.
The next assay addresses H-2 Db (Mus musculus, UniProt P01899). Format: binding, murine. To be noted: Db.
The next assay deals with H-2Ld (Mus musculus, UniProt P01897). Format: binding, murine.
H-2Ld, sequence (P01897 25-362): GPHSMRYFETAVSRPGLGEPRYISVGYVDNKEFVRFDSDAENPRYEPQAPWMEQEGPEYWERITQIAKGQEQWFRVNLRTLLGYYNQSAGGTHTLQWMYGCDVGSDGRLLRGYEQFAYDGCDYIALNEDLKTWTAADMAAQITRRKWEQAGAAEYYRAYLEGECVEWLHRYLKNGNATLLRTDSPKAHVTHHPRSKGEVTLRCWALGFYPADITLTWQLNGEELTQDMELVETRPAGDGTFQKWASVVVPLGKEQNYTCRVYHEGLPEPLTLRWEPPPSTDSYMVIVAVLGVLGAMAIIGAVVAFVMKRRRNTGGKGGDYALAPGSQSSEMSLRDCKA
H-2Ld, sequence (P61769 21-119, further chain): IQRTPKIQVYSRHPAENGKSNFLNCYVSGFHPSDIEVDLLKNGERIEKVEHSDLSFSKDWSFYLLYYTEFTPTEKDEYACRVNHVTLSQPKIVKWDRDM
In a further assay the target is H-2Dd (Mus musculus, UniProt P01900). The assay is classed as binding, murine.
H-2Dd, sequence (P01900 25-365): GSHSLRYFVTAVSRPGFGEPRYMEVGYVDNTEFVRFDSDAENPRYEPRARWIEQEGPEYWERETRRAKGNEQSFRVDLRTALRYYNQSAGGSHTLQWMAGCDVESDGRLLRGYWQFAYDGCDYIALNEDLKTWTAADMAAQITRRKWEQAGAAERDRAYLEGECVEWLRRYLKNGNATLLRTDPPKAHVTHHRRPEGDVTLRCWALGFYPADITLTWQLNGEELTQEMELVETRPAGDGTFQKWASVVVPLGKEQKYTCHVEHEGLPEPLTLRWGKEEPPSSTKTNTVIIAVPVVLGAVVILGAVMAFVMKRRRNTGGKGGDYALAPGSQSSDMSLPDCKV
H-2Dd, sequence (P61769 21-119, further chain): as the sequence (P61769 21-119, further chain) above

“And” between values parts separate entries of the source, which are not always exact repeats. Equal entries are not always repeated. Where two headings read alike, the source gives them in different places. No end group written: not given here.

H-2Kk, sequence (P04223 22-369): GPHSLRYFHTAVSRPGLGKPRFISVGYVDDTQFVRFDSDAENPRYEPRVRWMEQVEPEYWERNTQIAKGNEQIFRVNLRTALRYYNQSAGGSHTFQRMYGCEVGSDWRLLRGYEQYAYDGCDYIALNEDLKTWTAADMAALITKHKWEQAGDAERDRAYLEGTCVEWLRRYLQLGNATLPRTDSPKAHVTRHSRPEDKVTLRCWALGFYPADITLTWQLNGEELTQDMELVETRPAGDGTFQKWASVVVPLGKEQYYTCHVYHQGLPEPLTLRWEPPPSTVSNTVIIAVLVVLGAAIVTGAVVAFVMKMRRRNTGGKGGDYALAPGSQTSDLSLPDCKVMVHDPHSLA
H-2Kk, sequence (P61769 21-119, further chain): as the sequence (P61769 21-119, further chain) above
H-2 Db, sequence (P61769 21-119): as the sequence (P61769 21-119, further chain) above
H-2 Db, sequence (P01899 25-362): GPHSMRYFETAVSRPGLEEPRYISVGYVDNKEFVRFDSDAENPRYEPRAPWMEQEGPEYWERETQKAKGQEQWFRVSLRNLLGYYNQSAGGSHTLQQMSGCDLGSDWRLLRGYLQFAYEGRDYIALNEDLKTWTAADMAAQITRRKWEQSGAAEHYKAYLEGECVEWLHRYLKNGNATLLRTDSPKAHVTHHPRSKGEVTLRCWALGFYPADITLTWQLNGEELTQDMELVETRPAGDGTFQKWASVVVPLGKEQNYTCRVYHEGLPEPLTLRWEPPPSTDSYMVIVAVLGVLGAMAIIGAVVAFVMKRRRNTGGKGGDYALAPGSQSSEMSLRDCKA

Take SENDRYRLL: on H-2Kk (read-out: Kk), the IC50 is 13 nM.
NEEPSDKHI: the IC50 against H-2Kk was found to be 40 nM.
Turning to RPRGPGPGSEF, the IC50 at HLA-B*0702 (B*0702 binding affinity (IC50)) is 11 nM; on HLA-B*3501, 24900 nM; on HLA-B*5101, more than 14800 nM; on HLA-B*5301 (B*5301 binding affinity (IC50)), 19300 nM; at HLA-B*5401 (B*5401 binding affinity (IC50)) it was 2740 nM.
As for KAVANFATM, the IC50 is 1.2 nM at H-2 Db and 27000 nM against H-2Ld (Ld).
As for VESENKVV, at H-2Kk, the IC50 was 349 nM.
In the case of YPLTFGWCI, the figures for the IC50 at HLA-B*0702 (B*0702 binding affinity (IC50)) and on HLA-B*5401 (B*5401 binding affinity (IC50)) were 54300 nM and 79 nM, respectively.
As for CPTVQASKL, the IC50 on HLA-B*0702 (B*0702 binding affinity (IC50)) was 3250 nM; on HLA-B*3501, 645 nM; at HLA-B*5101, 448 nM; at HLA-B*5301 (B*5301 binding affinity (IC50)), 1860 nM; on HLA-B*5401 (B*5401 binding affinity (IC50)) it was 21600 nM.
For FPVRPQVPI, the IC50 turned out to be 94 nM at HLA-B*0702 (B*0702 binding affinity (IC50)), 124 nM at HLA-B*3501, 39 nM on HLA-B*5101 and 9.1 nM at HLA-B*5401 (B*5401 binding affinity (IC50)).
Consider TPAIRGPGPGF, for which the IC50 at HLA-B*0702 (read-out: B*0702 binding affinity (IC50)) was 144 nM; on HLA-B*5301 (read-out: B*5301 binding affinity (IC50)), 2740 nM; at HLA-B*5401 (read-out: B*5401 binding affinity (IC50)) it was 31800 nM.
For the molecule `CC(C)C[C@H](NC(=O)CNC(=O)[C@H](CCC(N)=O)NC(=O)[C@H](Cc1ccc(O)cc1)NC(=O)[C@@H](NC(=O)[C@H](Cc1ccc(O)cc1)NC(=O)CNC(=O)[C@@H](N)CCCNC(=N)N)C(C)C)C(=O)O`, the IC50 on H-2 Db is more than 44000 nM; against H-2Dd it was more than 37000 nM.
RPQASGVAM returned an IC50 against H-2Ld (Ld) of 12 nM.
For RPQASGVYM, the IC50 against H-2 Db was more than 44000 nM; against H-2Ld (Ld), 0.99 nM and 3 nM.
KAVYNFAAM: the IC50 was determined as 4.4 nM at H-2 Db and 27000 nM at H-2Ld (Ld).
As for `CC(C)C[C@H](NC(=O)[C@H](C)NC(=O)[C@@H](NC(=O)[C@H](CC(C)C)NC(=O)[C@H](C)NC(=O)[C@@H](NC(=O)[C@@H](NC(=O)[C@H](CCCNC(=N)N)NC(=O)[C@@H]1CCCN1C(=O)[C@H](C)N)[C@@H](C)O)C(C)C)[C@@H](C)O)C(=O)O` [APRTVALTAL], the IC50 at HLA-B*0702 (B*0702 binding affinity (IC50)) worked out at 12 nM; on HLA-B*3501, 4350 nM; on HLA-B*5101, 14600 nM; at HLA-B*5301 (B*5301 binding affinity (IC50)), 61600 nM; on HLA-B*5401 (B*5401 binding affinity (IC50)), 16800 nM.
Consider GPKVKQWPI, for which the IC50 at HLA-B*0702 (B*0702 binding affinity (IC50)) was 5500 nM; on HLA-B*3501, more than 72000 nM; on HLA-B*5101, more than 55000 nM; at HLA-B*5401 (B*5401 binding affinity (IC50)) it was more than 50000 nM.
With RPQVPLRPMTI, the IC50 at HLA-B*3501 is > 19000 nM and 10500 nM; on HLA-B*5101, 8080 nM; on HLA-B*5401 (B*5401 binding affinity (IC50)) it was more than 15100 nM.
FPGPGPGPL: the IC50 on HLA-B*0702 (B*0702 binding affinity (IC50)) worked out at 1580 nM; at HLA-B*3501, 426 nM; at HLA-B*5101 it was 2330 nM; on HLA-B*5301 (B*5301 binding affinity (IC50)) it was 21000 nM; on HLA-B*5401 (B*5401 binding affinity (IC50)) it was 29900 nM.
The matching figures for SPGPGPGL: 173 nM, 2340 nM, 3540 nM, 25600 nM and 53300 nM.
The like results for LPPLERLTI were, in that order, 24400 nM, 13400 nM, 359 nM, 2620 nM and 11200 nM.
With YPHFMLPTNL, on H-2Ld (read-out: Ld), the IC50 was 7.5 nM.
Turning to KAVYNYATM, the IC50 was 2.1 nM against H-2 Db and more than 27000 nM against H-2Ld (Ld).
The like results for KAVYNAATM were, in that order, 2 nM and more than 27000 nM.
Turning to `CC(C)C[C@H](NC(=O)[C@@H]1CCCN1C(=O)[C@@H](NC(=O)[C@H](CCC(N)=O)NC(=O)[C@@H]1CCCN1C(=O)[C@H](CCCNC(=N)N)NC(=O)[C@@H](NC(=O)[C@@H]1CCCN1C(=O)[C@@H](N)Cc1ccccc1)C(C)C)C(C)C)C(=O)O`, the IC50 at HLA-B*0702 (B*0702 binding affinity (IC50)) is 17 nM; at HLA-B*3501 it was 3.8 nM; on HLA-B*5101 it was 18 nM; on HLA-B*5301 (B*5301 binding affinity (IC50)) it was 49 nM; at HLA-B*5401 (B*5401 binding affinity (IC50)), 21 nM.
As to `CSCC[C@H](NC(=O)[C@@H](NC(=O)[C@H](C)NC(=O)[C@H](Cc1ccccc1)NC(=O)[C@H](CC(N)=O)NC(=O)[C@H](Cc1ccc(O)cc1)NC(=O)[C@@H](NC(=O)[C@H](C)NC(=O)[C@@H](N)CCCCN)C(C)C)[C@@H](C)O)C(=O)O`, the IC50 against H-2Ld (Ld) is more than 27000 nM.
On to FPLTFGWCI, for which the IC50 is 48000 nM on HLA-B*0702 (B*0702 binding affinity (IC50)); 164 nM on HLA-B*3501; 63 nM at HLA-B*5101; 36 nM at HLA-B*5301 (B*5301 binding affinity (IC50)); 14 nM at HLA-B*5401 (B*5401 binding affinity (IC50)).
On H-2Ld (Ld), RPQASQVYM registered an IC50 of 3.8 nM.
For the molecule RIPNASGVYM, the IC50 at H-2Ld (read-out: Ld) is 19 nM.
On to FPLTFGWCFKI, for which the IC50 turned out to be 52600 nM at HLA-B*0702 (B*0702 binding affinity (IC50)), 4990 nM on HLA-B*3501, 590 nM at HLA-B*5101 and 188 nM on HLA-B*5301 (B*5301 binding affinity (IC50)).
FPVGPGPGL: the IC50 on HLA-B*3501 came to 14 nM; at HLA-B*5101 it was 138 nM; at HLA-B*5301 (B*5301 binding affinity (IC50)) it was 32 nM; at HLA-B*5401 (B*5401 binding affinity (IC50)), 246 nM.
As to EEKHEKKHV, the IC50 against H-2Kk worked out at 284 nM.
Consider QPRAPIRPI, for which the IC50 on HLA-B*0702 (B*0702 binding affinity (IC50)) was 6770 nM; at HLA-B*3501, more than 72000 nM; on HLA-B*5101, more than 55000 nM; on HLA-B*5401 (B*5401 binding affinity (IC50)), more than 100000 nM.
For IPQSLDSWTSL, the IC50 on H-2Ld (Ld) turned out to be 0.22 nM.
In the case of RPQVPLRPI, the IC50 on HLA-B*0702 (B*0702 binding affinity (IC50)) was 367 nM; at HLA-B*3501, more than 23200 nM; on HLA-B*5101 it was more than 9000 nM; on HLA-B*5301 (B*5301 binding affinity (IC50)), 85300 nM.
At H-2Dd, KGPYRAFVTI showed an IC50 of 5.8 nM.
On to `N=C(N)NCCC[C@H](NC(=O)[C@H](CCC(N)=O)NC(=O)[C@@H]1CCCN1C(=O)[C@@H](N)CCC(N)=O)C(=O)NCC(=O)N[C@@H](Cc1ccc(O)cc1)C(=O)N[C@@H](CCC(=O)O)C(=O)N[C@@H](CC(N)=O)C(=O)N[C@@H](Cc1ccccc1)C(=O)O`, for which, at H-2Ld (Ld), the IC50 stood at 319 nM.
On to WGPSLYSI, for which the IC50 against H-2Dd came out at 17 nM.
The same measure, in the same setting: to RGPGRAYVTI belongs 14 nM.
Consider TPAGPGPGVF, for which the IC50 on HLA-B*0702 (B*0702 binding affinity (IC50)) was 334 nM; at HLA-B*3501, 374 nM; on HLA-B*5301 (B*5301 binding affinity (IC50)), 2630 nM.
Consider LGFVFTLTV, for which the IC50 on HLA-B*0702 (B*0702 binding affinity (IC50)) was 849 nM; on HLA-B*3501, more than 72000 nM; at HLA-B*5301 (B*5301 binding affinity (IC50)), more than 93000 nM.
The matching figures for TPTGWGLAI: 76 nM, 5140 nM and 1340 nM.
With `CC(C)C[C@H](NC(=O)[C@H](Cc1c[nH]cn1)NC(=O)[C@H](CCCNC(=N)N)NC(=O)[C@H](CCC(N)=O)NC(=O)[C@H](CCCCN)NC(=O)[C@H](CCC(=O)O)NC(=O)[C@H](CCC(=O)O)NC(=O)[C@@H]1CCCN1C(=O)[C@@H](N)CS)C(=O)O`, the IC50 at HLA-B*0702 (B*0702 binding affinity (IC50)) is 10 nM; at HLA-B*3501, more than 52600 nM; at HLA-B*5101, more than 35500 nM; at HLA-B*5301 (B*5301 binding affinity (IC50)) it was more than 109000 nM; at HLA-B*5401 (B*5401 binding affinity (IC50)), more than 76900 nM.
Regarding RGPARAFVTI, the IC50 against H-2Dd is 1.04 nM.
`CSCC[C@H](NC(=O)[C@@H](NC(=O)[C@H](CCC(=O)O)NC(=O)[C@H](CCSC)NC(=O)[C@H](CC(N)=O)NC(=O)[C@H](CCC(=O)O)NC(=O)[C@H](CC(N)=O)NC(=O)[C@H](CO)NC(=O)[C@H](C)N)[C@@H](C)O)C(=O)O`: the IC50 on H-2 Db is 41 nM and 33 nM; at H-2Dd, more than 37000 nM.
With APCNFFTSA, the IC50 at HLA-B*0702 (B*0702 binding affinity (IC50)) was 43 nM; at HLA-B*3501 it was 8090 nM; at HLA-B*5301 (B*5301 binding affinity (IC50)) it was more than 22400 nM; on HLA-B*5401 (B*5401 binding affinity (IC50)) it was 0.61 nM.
For RPQGSGVYM, the IC50 on H-2Ld (Ld) amounted to 39 nM.
Regarding GPGHKARVI, the IC50 was 1690 nM on HLA-B*0702 (B*0702 binding affinity (IC50)), more than 72000 nM at HLA-B*3501, more than 55000 nM at HLA-B*5101 and more than 50000 nM at HLA-B*5401 (B*5401 binding affinity (IC50)).

Source of the values: patent publication US20060079453A1, “Hla binding peptides and their uses” (priority 2002, published 2006).
